Source: patent publication US5041438A, “Method for treating retroviral infections with benzodiazepine compounds” (Hoffmann-La Roche Inc., priority 1989, dated 1991)
“Also recorded” adds a separate entry of the source. Read-outs that look alike come from different tables or passages of the source.

How the values were obtained:
[1] = system: HIV; conditions: in most patients; cited from earlier work
[2] = system: HIV/HTLV III, RF strain; test: p24 viral antigen capture assay (ELISA) in C8166 CD4+ T-cells; assay type: cell-based; conditions: for anti-viral activity in p24 viral antigen capture assay: result in words
Method: Compound I was tested for anti-viral activity in the p24 viral antigen capture assay.
The Enzyme Linked Immuno-absorbant Assay (ELISA) was used to test Compound I for anti-HIV activity by measuring virus replication in CD4^+ T-lymphocytes by detecting viral p24 antigen released into the tissue culture supernatant of infected cells.
High titer virus stocks [HIV/HTLV III, RF strain]were grown in H9 cells in RPMI-1640 (Flow Laboratories) supplemented with 10% fetal calf serum, penicillin (100 IU/ml) and streptomycin (100 μg/ml). Cell debris was removed by low speed centrifugation and the supernatant stored at -70° C. until required. The host cell line used in the anti-viral assays was the C8166 CD4^+ T-cell line which is particularly susceptible to infection with HIV. Cells were incubated with 10 TCID50, HIV/HTLV III (RF) at 37° C. for 90 minutes and then washed three times with PBS. Cell aliquots (2×10^5) were resuspended in 1.5 ml growth medium in 6 ml tubes and appropriate amounts of Compound I added and incubated at 37° C. At 72 hours post-infection, the supernatants from the cell cultures were assayed for p24 antigen. The antigen capture ELISA used was purchased from Coulter (Luton, UK). The assays were carried out on supernatants taken from infected cell cultures using the procedure described by the manufacturer. In each assay a positive control was included, together with a supernatant control taken from uninfected cells. The plates were read using the appropriate spectrophotometric detection system. Results of two separate assays are:
ID50 is defined as the dose of compound required to inhibit viral replication by 50 percent. […] Approximately 0.1 μM and 6 μM of Compound I yields 50 percent inhibition of viral replication. 0.003 μM AZT provided 50 percent inhibition of viral replication in one test conducted. ddC provided 50 percent inhibition at a concentration of 0.01 μM in one test.

[3] = system: TAT; test: anti-TAT assay: SeAP reporter expression under HIV-LTR in COS cells co-transfected with TAT; assay type: cell-based; conditions: 1, 10 and 100 μM, added 24 h post transfection, assayed 48 h later, FIG. 1
Description: (§1) FIG. 1 Illustrates anti-TAT activity of Compound I. COS cells are co-transfected with TAT and Secreted Alkaline Phosphatase (SeAP) genes. The SeAP gene, under the control of the HIV-LTR (responsive to TAT activation) or the RSV-LTR (unresponsive to TAT action) serves as a monitor or reporter gene. SeAP activity in the HIV-LTR combination but not the RSV-LTR combination serves as a measure of TAT activity. Cells containing the RSV-LTR co-transfected gene combination serve as an indicator of the non-specific toxicity of added test compounds. The black bars represent the percent inhibition of SeAP activity by Compound I when the SeAP gene is under the control of HIV-LTR. The hatched bars represent the effect of Compound I on SeAP activity when the SeAP gene is regulated by RSV-LTR. […] The figure includes results from three separate assays.
(§2) Compound I was tested for anti-TAT activity in an anti-TAT assay described in copending patent application, now U.S. Ser. No. 07/428,555 filed Oct. 10, 1989, filed on the same day as the instant application and hereby incorporated by reference. […] The anti-TAT activity is measured by the percent inhibition of SeAP gene expression under the control of HIV-LTR.

[4] = system: HIV-1 NIT strain; test: inhibition of HIV-cytopathic effect and of viral RNA and antigen production in infected CD4+ CEM cells; assay type: cell-based; conditions: MOI=1, 3 and 6 days, FIGS. 2 and 3
Method: High titer virus stocks (HIV-1 NIT strain) were grown in CD4^+ CR1O cells in RMPI-1640 media (Gibco Laboratories) supplemented with 10% fetal calf serum and 0.1 mg/ml Gentamicin. The collected media were filtered through a 0.8 Micron filter and virus isolates were concentrated 100 fold and stored at -80° C.
CD4^+ CEM cells, propagated in the same medium, were incubated for 60 minutes at 37° C. with diluted stock virus at MOI=1. Cells were washed three times with phosphate buffered saline and resuspended in the medium at 2×10^5 cells/ml. Various quantities of Compound I were added. Three days after infection, numbers of live cells were counted by trypan blue exclusion [Mitsuya, et al. Proc. Natl. Acad. Sci. 83:1911 (1986)]. […] Cells stained with the fluorescent antibody were counted using a fluorescence microscope and the results were expressed as percentage of the total number of cells counted [(Hedenskog et al., J. Med. Virol. 1:9325 (1986)].
The viral RNA in infected cells was quantitized with an RNA-RNA hybridization/reversible target capture procedure [Gillespie et al. Molecular and Cellular Probes, 2:73 (1989)]. […] 2×10^5 live cells, determined by trypan blue exclusion, were used in each assay.
For cytotoxicity testing, uninfected CEM cells were treated with Compound I at similar concentrations and toxicity of the compound was measured by the live-cell count. […]

[5] = system: COS cells; test: parallel cytotoxicity assay: SeAP expression under RSV-LTR in COS cells; assay type: cell-based; conditions: RSV-LTR not responsive to TAT, FIG. 1
Description: as §1, §2

SMILES	virustatic range (body weight dose) [1]	IC50 ([2]; Human immunodeficiency virus 1, p24 antigen, C8166 cells, 72 h post-infection, second of two separate assays, read-out: ID50 (dose of compound required to inhibit viral replication by 50 percent)) [nM]	anti-viral activity in p24 viral antigen capture assay [2]	IC50 ([2]; Human immunodeficiency virus 1, p24 antigen, C8166 cells, 72 h post-infection, first of two separate assays, read-out: ID50 (dose of compound required to inhibit viral replication by 50 percent)) [nM]	anti-TAT activity (inhibition of SeAP gene expression under control of HIV-LTR) [3]	anti-HIV activity (HIV-cytopathic effect, viral RNA and antigen production) [4]	IC50 ([2]; Human immunodeficiency virus 1, C8166, 72 h, read-out: ID50 (dose of compound required to inhibit viral replication by 50 percent), p24 antigen, C8166 cells, 72 h post-infection, first of two separate assays) [nM]	IC50 ([2]; Human immunodeficiency virus 1, C8166, 72 h, read-out: ID50 (dose of compound required to inhibit viral replication by 50 percent), p24 antigen, C8166 cells, 72 h post-infection, second of two separate assays) [nM]	nonspecific cytotoxicity (SeAP gene expression under control of RSV-LTR) [5]
Nc1ccn([C@H]2CC[C@@H](CO)O2)c(=O)n1 [ddC]	0.005-0.25 mg/kg body weight	10	active in the p24 assay						
Cc1cn([C@H]2C[C@H](N=[N+]=[N-])[C@@H](CO)O2)c(=O)[nH]c1=O [AZT]			active in the p24 assay; also recorded: exhibits anti-viral activity	3					
O=C1CN=C(c2ccc[nH]2)c2cc(Cl)ccc2N1 [Compound I, 7-chloro-5-(2-pyrryl)-3H-1,4-benzodiazepin-2(1H)-one]			positive results; also recorded: exhibits anti-viral activity		specifically inhibits TAT action; also recorded: exhibits anti-TAT activity; also recorded: specific inhibitor of TAT	inhibition of HIV-cytopathic effect and viral RNA and antigen production	100	6000	does not exhibit nonspecific toxicity; also recorded: does not exhibit nonspecific cytotoxicity
